Test results as given in ChEMBL document CHEMBL1146729, “Rational design and synthesis of novel heparan sulfate mimetic compounds as antiadhesive agents” (Bioorg Med Chem Lett, 2004).
pIC50: −log10 of the molar value.

Test system: HT-1080
Experiment: Compound (100 uM) was tested for percent inhibition against adhesion of human HT1080 cells
Assay type: functional

Compound	Inhibition [%]
CC(=O)OC(=O)c1ccccc1C(=O)c1ccc(F)c([N+](=O)[O-])c1	89

Target: Matrix metalloproteinase-9 (Homo sapiens, UniProt P14780)
Experiment: Inhibition of matrix metalloprotease-9 at 100 uM (inactive)

Sequence of Matrix metalloproteinase-9 (P14780 whole entry): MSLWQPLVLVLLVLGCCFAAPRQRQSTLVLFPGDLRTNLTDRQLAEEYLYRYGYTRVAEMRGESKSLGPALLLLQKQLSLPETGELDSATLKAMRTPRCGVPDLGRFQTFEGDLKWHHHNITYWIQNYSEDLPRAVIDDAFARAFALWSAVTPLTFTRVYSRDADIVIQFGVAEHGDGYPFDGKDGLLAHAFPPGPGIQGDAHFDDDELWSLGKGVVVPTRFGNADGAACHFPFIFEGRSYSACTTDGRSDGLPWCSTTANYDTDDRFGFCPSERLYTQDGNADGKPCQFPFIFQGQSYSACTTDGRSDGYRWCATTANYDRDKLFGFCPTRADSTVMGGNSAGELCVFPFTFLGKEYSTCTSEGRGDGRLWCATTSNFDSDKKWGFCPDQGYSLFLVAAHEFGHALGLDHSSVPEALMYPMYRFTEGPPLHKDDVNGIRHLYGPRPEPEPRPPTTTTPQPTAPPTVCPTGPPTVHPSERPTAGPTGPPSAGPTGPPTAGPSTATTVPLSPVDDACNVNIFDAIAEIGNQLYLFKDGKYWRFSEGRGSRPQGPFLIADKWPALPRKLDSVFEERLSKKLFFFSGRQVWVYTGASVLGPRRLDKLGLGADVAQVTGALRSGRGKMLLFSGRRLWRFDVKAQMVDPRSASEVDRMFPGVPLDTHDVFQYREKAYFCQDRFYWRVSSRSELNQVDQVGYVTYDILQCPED

Compound	IC50
CCSc1ccc(C(=O)c2ccccc2C(=O)O)cc1[N+](=O)[O-]	Not Active
CC(=O)OC(=O)c1ccccc1C(=O)c1ccc(Sc2ccccc2)c([N+](=O)[O-])c1	Not Active
O=C(O)c1ccccc1C(=O)c1ccc(Sc2ccccc2)c([N+](=O)[O-])c1	Not Active
CCNc1ccc(C(=O)c2ccccc2C(=O)O)cc1[N+](=O)[O-]	Not Active
O=C(O)c1ccccc1C(=O)c1ccc(NC2CCCCC2)c([N+](=O)[O-])c1	Not Active
CC(=O)OC(=O)c1ccccc1C(=O)c1ccc(F)c([N+](=O)[O-])c1	Not Active

Test system: HT-1080
Experiment: Compound was tested for inhibitory activity against adhesion of human Plastic/HT1080 cells
Assay type: functional, cell-based

Compound	pIC50
CC(=O)OC(=O)c1ccccc1C(=O)c1ccc(F)c([N+](=O)[O-])c1	5.30

Test system: HT-1080
Experiment: Compound (100 uM) was tested for percent inhibition against adhesion of human HT1080 cells; No inhibition
Assay type: functional, cell-based

Compound	IC50
CCSc1ccc(C(=O)c2ccccc2C(=O)O)cc1[N+](=O)[O-]	Not Active
CC(=O)OC(=O)c1ccccc1C(=O)c1ccc(Sc2ccccc2)c([N+](=O)[O-])c1	Not Active
O=C(O)c1ccccc1C(=O)c1ccc(Sc2ccccc2)c([N+](=O)[O-])c1	Not Active
CCNc1ccc(C(=O)c2ccccc2C(=O)O)cc1[N+](=O)[O-]	Not Active
O=C(O)c1ccccc1C(=O)c1ccc(NC2CCCCC2)c([N+](=O)[O-])c1	Not Active

Target: 72 kDa type IV collagenase (Homo sapiens, UniProt P08253)
Experiment: Inhibition of matrix metalloprotease-2 at 100 uM (inactive)

Sequence of 72 kDa type IV collagenase (P08253 whole entry): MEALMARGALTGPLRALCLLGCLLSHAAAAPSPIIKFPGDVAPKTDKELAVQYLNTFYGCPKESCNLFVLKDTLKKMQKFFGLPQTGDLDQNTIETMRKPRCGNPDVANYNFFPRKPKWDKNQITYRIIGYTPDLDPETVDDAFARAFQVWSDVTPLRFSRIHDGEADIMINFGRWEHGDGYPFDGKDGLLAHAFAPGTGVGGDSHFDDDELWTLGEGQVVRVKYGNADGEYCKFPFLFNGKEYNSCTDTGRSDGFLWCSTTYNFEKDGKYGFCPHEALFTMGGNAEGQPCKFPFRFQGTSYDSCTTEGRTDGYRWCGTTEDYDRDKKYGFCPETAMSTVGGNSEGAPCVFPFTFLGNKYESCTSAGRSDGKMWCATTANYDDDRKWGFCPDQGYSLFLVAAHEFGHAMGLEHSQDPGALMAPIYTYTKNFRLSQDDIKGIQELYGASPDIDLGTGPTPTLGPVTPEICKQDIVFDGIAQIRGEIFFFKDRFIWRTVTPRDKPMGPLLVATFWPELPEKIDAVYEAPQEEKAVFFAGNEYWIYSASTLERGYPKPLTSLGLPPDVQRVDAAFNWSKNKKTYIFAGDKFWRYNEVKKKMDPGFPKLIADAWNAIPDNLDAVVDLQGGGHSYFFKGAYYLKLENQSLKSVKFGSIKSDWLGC

Compound	IC50
CCSc1ccc(C(=O)c2ccccc2C(=O)O)cc1[N+](=O)[O-]	Not Active
CC(=O)OC(=O)c1ccccc1C(=O)c1ccc(Sc2ccccc2)c([N+](=O)[O-])c1	Not Active
O=C(O)c1ccccc1C(=O)c1ccc(Sc2ccccc2)c([N+](=O)[O-])c1	Not Active
CCNc1ccc(C(=O)c2ccccc2C(=O)O)cc1[N+](=O)[O-]	Not Active
O=C(O)c1ccccc1C(=O)c1ccc(NC2CCCCC2)c([N+](=O)[O-])c1	Not Active
CC(=O)OC(=O)c1ccccc1C(=O)c1ccc(F)c([N+](=O)[O-])c1	Not Active

Test system: HT-1080
Experiment: Compound was tested for inhibitory activity against growth of human HT1080 cells
Assay type: functional, cell-based

Compound	pIC50
CC(=O)OC(=O)c1ccccc1C(=O)c1ccc(F)c([N+](=O)[O-])c1	5.00

Target: T1, Heparanase (Homo sapiens, UniProt Q9Y251)
T1 sequence (Q9Y251 whole entry): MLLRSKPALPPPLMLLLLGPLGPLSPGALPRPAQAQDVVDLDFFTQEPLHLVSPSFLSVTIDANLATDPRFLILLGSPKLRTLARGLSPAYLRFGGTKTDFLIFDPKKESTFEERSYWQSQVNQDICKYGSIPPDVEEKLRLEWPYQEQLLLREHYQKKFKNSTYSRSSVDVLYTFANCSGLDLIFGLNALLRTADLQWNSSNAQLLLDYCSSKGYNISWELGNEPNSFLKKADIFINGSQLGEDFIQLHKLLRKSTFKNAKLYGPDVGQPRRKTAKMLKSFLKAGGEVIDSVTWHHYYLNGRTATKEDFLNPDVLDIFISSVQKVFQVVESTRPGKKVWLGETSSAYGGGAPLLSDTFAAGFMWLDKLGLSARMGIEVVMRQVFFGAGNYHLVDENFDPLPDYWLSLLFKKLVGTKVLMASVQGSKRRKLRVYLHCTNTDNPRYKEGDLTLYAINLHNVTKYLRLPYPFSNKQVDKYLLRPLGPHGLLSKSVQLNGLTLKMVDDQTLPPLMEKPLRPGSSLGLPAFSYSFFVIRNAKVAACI
Experiment: Inhibitory concentration against heparanase; No inhibition

Compound	IC50
CCSc1ccc(C(=O)c2ccccc2C(=O)O)cc1[N+](=O)[O-]	Not Active
CC(=O)OC(=O)c1ccccc1C(=O)c1ccc(Sc2ccccc2)c([N+](=O)[O-])c1	Not Active
O=C(O)c1ccccc1C(=O)c1ccc(Sc2ccccc2)c([N+](=O)[O-])c1	Not Active
CCNc1ccc(C(=O)c2ccccc2C(=O)O)cc1[N+](=O)[O-]	Not Active
O=C(O)c1ccccc1C(=O)c1ccc(NC2CCCCC2)c([N+](=O)[O-])c1	Not Active
CC(=O)OC(=O)c1ccccc1C(=O)c1ccc(F)c([N+](=O)[O-])c1	Not Active

Test system: HeLa
Experiment: Compound (100 uM) was tested for percent inhibition against adhesion of human HeLa cells; No inhibition
Assay type: functional, cell-based

Compound	IC50
CCSc1ccc(C(=O)c2ccccc2C(=O)O)cc1[N+](=O)[O-]	Not Active
CC(=O)OC(=O)c1ccccc1C(=O)c1ccc(Sc2ccccc2)c([N+](=O)[O-])c1	Not Active
O=C(O)c1ccccc1C(=O)c1ccc(Sc2ccccc2)c([N+](=O)[O-])c1	Not Active
CCNc1ccc(C(=O)c2ccccc2C(=O)O)cc1[N+](=O)[O-]	Not Active
O=C(O)c1ccccc1C(=O)c1ccc(NC2CCCCC2)c([N+](=O)[O-])c1	Not Active

Test system: HT-1080
Experiment: Compound was tested for inhibitory activity against adhesion of human collagen IV/HT1080 cell
Assay type: functional, cell-based

Compound	pIC50
CC(=O)OC(=O)c1ccccc1C(=O)c1ccc(F)c([N+](=O)[O-])c1	4.37

Target: T2, Integrin alpha-5/beta-1 (Homo sapiens, UniProt P05556+P08648)
Experiment: Inhibition of human HeLa cell adhesion to fibronectin
Assay type: functional, cell-based

T2 sequence (P05556 21-798 limits assumed): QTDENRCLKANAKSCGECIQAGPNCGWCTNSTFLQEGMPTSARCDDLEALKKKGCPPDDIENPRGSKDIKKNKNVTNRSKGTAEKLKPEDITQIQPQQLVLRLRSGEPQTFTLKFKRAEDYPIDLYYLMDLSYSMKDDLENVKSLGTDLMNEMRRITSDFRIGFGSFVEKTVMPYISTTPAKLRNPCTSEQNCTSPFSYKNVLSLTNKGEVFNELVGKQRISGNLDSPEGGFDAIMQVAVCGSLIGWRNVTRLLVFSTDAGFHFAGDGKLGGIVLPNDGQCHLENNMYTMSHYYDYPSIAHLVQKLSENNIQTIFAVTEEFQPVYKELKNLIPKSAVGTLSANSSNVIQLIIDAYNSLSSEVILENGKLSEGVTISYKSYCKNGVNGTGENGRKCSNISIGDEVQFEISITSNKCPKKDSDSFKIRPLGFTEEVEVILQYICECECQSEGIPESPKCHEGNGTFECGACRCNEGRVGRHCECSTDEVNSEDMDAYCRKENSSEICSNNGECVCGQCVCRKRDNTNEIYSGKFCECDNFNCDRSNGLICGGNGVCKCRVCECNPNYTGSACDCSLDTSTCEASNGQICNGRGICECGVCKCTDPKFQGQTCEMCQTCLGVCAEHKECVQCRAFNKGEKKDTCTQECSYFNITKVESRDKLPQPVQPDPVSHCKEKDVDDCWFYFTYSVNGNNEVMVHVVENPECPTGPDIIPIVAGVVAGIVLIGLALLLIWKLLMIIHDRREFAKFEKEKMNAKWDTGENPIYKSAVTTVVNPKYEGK
T2 sequence (P08648 42-894 limits assumed): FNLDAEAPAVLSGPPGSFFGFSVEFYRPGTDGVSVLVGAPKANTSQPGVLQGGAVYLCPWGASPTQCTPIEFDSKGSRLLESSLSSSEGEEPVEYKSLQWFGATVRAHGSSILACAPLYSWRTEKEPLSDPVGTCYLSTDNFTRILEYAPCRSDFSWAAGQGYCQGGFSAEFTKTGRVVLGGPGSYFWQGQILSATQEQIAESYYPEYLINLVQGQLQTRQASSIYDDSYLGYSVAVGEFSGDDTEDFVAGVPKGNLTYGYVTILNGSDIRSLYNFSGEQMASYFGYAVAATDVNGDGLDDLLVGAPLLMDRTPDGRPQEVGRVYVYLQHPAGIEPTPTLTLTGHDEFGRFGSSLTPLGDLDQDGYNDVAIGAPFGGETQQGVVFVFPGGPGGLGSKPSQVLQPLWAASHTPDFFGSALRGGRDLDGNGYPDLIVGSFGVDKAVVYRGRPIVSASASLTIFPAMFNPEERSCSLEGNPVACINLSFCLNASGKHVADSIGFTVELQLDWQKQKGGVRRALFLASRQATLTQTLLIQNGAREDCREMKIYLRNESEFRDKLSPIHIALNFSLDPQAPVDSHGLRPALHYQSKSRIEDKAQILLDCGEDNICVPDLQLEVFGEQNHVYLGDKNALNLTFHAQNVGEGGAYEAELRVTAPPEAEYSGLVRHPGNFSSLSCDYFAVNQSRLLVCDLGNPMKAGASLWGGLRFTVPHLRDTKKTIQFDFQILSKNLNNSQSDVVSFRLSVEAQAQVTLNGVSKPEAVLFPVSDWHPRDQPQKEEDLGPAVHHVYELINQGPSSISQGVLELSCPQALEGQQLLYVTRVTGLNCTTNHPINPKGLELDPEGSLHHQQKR
T2 sequence (P08648 895-1049 limits assumed): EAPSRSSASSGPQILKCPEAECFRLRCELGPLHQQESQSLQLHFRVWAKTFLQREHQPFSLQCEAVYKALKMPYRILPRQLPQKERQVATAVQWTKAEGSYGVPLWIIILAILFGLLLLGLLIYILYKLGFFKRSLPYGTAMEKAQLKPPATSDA

Compound	pIC50
CC(=O)OC(=O)c1ccccc1C(=O)c1ccc(F)c([N+](=O)[O-])c1	4.80

Target: Coagulation factor X (Homo sapiens, UniProt P00742)
Experiment: Inhibition of Coagulation factor X at 100 uM; No inhibition

Sequence of Coagulation factor X (P00742 41-179 limits assumed): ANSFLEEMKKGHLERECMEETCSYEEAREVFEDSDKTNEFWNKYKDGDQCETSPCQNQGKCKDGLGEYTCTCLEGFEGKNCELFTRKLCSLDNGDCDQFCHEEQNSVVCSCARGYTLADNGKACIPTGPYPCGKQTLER
Sequence of Coagulation factor X (P00742 235-488 limits assumed): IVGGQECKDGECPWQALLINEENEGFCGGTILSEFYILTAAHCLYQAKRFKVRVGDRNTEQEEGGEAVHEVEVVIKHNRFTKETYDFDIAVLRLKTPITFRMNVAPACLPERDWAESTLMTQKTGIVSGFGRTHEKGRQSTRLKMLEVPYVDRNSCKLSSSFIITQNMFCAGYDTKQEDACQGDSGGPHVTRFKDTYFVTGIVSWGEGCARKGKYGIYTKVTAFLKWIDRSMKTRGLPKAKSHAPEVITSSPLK

Compound	IC50
CCSc1ccc(C(=O)c2ccccc2C(=O)O)cc1[N+](=O)[O-]	Not Active
CC(=O)OC(=O)c1ccccc1C(=O)c1ccc(Sc2ccccc2)c([N+](=O)[O-])c1	Not Active
O=C(O)c1ccccc1C(=O)c1ccc(Sc2ccccc2)c([N+](=O)[O-])c1	Not Active
CCNc1ccc(C(=O)c2ccccc2C(=O)O)cc1[N+](=O)[O-]	Not Active
O=C(O)c1ccccc1C(=O)c1ccc(NC2CCCCC2)c([N+](=O)[O-])c1	Not Active
CC(=O)OC(=O)c1ccccc1C(=O)c1ccc(F)c([N+](=O)[O-])c1	Not Active

Target: Prothrombin (Homo sapiens, UniProt P00734)
Experiment: Compound (100 uM) was tested for inhibitory activity against thrombin; No inhibition

Compound	IC50
CCSc1ccc(C(=O)c2ccccc2C(=O)O)cc1[N+](=O)[O-]	Not Active
CC(=O)OC(=O)c1ccccc1C(=O)c1ccc(Sc2ccccc2)c([N+](=O)[O-])c1	Not Active
O=C(O)c1ccccc1C(=O)c1ccc(Sc2ccccc2)c([N+](=O)[O-])c1	Not Active
CCNc1ccc(C(=O)c2ccccc2C(=O)O)cc1[N+](=O)[O-]	Not Active
O=C(O)c1ccccc1C(=O)c1ccc(NC2CCCCC2)c([N+](=O)[O-])c1	Not Active
CC(=O)OC(=O)c1ccccc1C(=O)c1ccc(F)c([N+](=O)[O-])c1	Not Active

Target: Serine protease 1 (Homo sapiens, UniProt P07477)
Experiment: Inhibitory activity against trypsin at 100 uM; No inhibition

Sequence of Serine protease 1 (P07477 whole entry): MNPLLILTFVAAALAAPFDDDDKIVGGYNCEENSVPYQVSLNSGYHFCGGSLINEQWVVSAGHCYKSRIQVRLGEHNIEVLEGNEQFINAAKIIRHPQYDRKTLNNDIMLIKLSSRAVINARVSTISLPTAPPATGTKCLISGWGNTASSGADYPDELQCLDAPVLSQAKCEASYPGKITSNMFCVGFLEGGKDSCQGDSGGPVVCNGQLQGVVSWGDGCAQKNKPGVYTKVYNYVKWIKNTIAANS

Compound	IC50
CCSc1ccc(C(=O)c2ccccc2C(=O)O)cc1[N+](=O)[O-]	Not Active
CC(=O)OC(=O)c1ccccc1C(=O)c1ccc(Sc2ccccc2)c([N+](=O)[O-])c1	Not Active
O=C(O)c1ccccc1C(=O)c1ccc(Sc2ccccc2)c([N+](=O)[O-])c1	Not Active
CCNc1ccc(C(=O)c2ccccc2C(=O)O)cc1[N+](=O)[O-]	Not Active
O=C(O)c1ccccc1C(=O)c1ccc(NC2CCCCC2)c([N+](=O)[O-])c1	Not Active
CC(=O)OC(=O)c1ccccc1C(=O)c1ccc(F)c([N+](=O)[O-])c1	Not Active

Target: T1, Heparanase
Experiment: Compound was tested for inhibitory activity against heparanase

Compound	pIC50
O=C(O)c1ccccc1C(=O)c1ccc(Sc2ccccc2)c([N+](=O)[O-])c1	3.52

Test system: HT-1080
Experiment: Compound was tested for inhibitory activity against invasion of human HT1080 cells
Assay type: functional, cell-based

Compound	pIC50
CC(=O)OC(=O)c1ccccc1C(=O)c1ccc(F)c([N+](=O)[O-])c1	5.70

Target: T3, Collagenase ColA (Bacteria, UniProt P43153)
T3 sequence (P43153 whole entry): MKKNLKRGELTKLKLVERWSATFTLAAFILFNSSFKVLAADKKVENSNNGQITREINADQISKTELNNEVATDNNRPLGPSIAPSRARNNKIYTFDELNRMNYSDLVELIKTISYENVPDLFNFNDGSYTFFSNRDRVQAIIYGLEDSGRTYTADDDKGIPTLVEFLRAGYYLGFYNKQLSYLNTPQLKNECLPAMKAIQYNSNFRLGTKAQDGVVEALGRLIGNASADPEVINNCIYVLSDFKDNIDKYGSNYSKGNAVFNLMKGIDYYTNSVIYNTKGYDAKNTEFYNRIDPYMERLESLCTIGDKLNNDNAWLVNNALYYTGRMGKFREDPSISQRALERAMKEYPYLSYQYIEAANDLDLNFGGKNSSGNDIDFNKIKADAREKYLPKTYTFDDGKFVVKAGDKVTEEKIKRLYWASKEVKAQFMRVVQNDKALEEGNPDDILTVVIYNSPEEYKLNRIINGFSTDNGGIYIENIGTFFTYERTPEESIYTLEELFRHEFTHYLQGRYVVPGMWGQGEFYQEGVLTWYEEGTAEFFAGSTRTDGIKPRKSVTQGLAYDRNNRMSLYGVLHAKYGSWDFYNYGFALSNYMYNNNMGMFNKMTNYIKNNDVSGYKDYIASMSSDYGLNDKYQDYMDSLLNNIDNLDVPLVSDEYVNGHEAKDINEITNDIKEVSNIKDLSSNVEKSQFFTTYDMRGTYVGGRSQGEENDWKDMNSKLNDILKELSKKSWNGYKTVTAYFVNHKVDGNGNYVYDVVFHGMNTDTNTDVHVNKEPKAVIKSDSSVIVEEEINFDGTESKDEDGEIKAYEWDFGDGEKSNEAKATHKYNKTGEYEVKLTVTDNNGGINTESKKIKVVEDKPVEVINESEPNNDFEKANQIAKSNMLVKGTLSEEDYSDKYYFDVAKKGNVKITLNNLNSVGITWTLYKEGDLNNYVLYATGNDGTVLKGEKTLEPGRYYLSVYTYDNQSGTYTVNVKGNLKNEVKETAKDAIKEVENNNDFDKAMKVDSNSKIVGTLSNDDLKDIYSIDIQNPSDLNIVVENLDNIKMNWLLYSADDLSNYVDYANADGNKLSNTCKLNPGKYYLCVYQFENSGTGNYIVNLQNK
Experiment: Inhibition of collagenase at 100 uM (No inhibition)
Design: species or system Hathewaya histolytica

Compound	IC50
CCSc1ccc(C(=O)c2ccccc2C(=O)O)cc1[N+](=O)[O-]	Not Active
CC(=O)OC(=O)c1ccccc1C(=O)c1ccc(Sc2ccccc2)c([N+](=O)[O-])c1	Not Active
O=C(O)c1ccccc1C(=O)c1ccc(Sc2ccccc2)c([N+](=O)[O-])c1	Not Active
CCNc1ccc(C(=O)c2ccccc2C(=O)O)cc1[N+](=O)[O-]	Not Active
O=C(O)c1ccccc1C(=O)c1ccc(NC2CCCCC2)c([N+](=O)[O-])c1	Not Active
CC(=O)OC(=O)c1ccccc1C(=O)c1ccc(F)c([N+](=O)[O-])c1	Not Active

Test system: HeLa
Experiment: Compound (100 uM) was tested for percent inhibition against adhesion of human HeLa cells
Assay type: functional

Compound	Inhibition [%]
CC(=O)OC(=O)c1ccccc1C(=O)c1ccc(F)c([N+](=O)[O-])c1	85

Test system: HT-1080
Experiment: Compound was tested for inhibitory activity against migration of human HT1080 cells
Assay type: functional, cell-based

Compound	pIC50
CC(=O)OC(=O)c1ccccc1C(=O)c1ccc(F)c([N+](=O)[O-])c1	5.70

Target: T2, Integrin alpha-5/beta-1
Experiment: Inhibition of human HT1080 cell adhesion to fibronectin
Assay type: functional, cell-based, HT-1080

Compound	pIC50
CC(=O)OC(=O)c1ccccc1C(=O)c1ccc(F)c([N+](=O)[O-])c1	5.15

Target: T2, Integrin alpha-5/beta-1
Experiment: Inhibition of human A431 cell adhesion to fibronectin
Assay type: functional, cell-based, A-431

Compound	pIC50
CC(=O)OC(=O)c1ccccc1C(=O)c1ccc(F)c([N+](=O)[O-])c1	5.10

Test system: HT-1080
Experiment: Compound was tested for inhibitory activity against adhesion of human laminin/HT1080 cells
Assay type: functional, cell-based

Compound	pIC50
CC(=O)OC(=O)c1ccccc1C(=O)c1ccc(F)c([N+](=O)[O-])c1	4.77
